Our source for the IC50 values is patent US10144706B2 (BRISTOL-MYERS SQUIBB COMPANY, priority 2016, dated 2018).

Each structure is given as a SMILES string. Where two headings read alike, the source gives them in different places.

The assay has as its target T1, PD-1/PD-L1 interaction (PD-1-Ig / PD-L1-His) (Homo sapiens, UniProt Q9NZQ7).
T1 construct: hPDL1(18-239)-TVMV-His; TVMV protease site linker (C); made in house; host or cells: HEK293T
As to the kind of experiment: PD-1/PD-L1 Homogenous Time-Resolved Fluorescence (HTRF) binding assay. Particulars: PD-L1-His 10 nM, PD-1-Ig 20 nM, read-out: Range or IC50. A digest of the protocol:
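HTRF detection used 1 nM europium-cryptate anti-Ig and 20 nM APC anti-His. Compounds first saw 10 nM PD-L1-His for 15 min, and 20 nM PD-1-Ig was then added for another 15 min. Buffer was dPBS plus 0.1% BSA and 0.05% Tween-20. All concentrations are final.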

T1 sequence (Q9NZQ7 with tags, fused parts or gaps): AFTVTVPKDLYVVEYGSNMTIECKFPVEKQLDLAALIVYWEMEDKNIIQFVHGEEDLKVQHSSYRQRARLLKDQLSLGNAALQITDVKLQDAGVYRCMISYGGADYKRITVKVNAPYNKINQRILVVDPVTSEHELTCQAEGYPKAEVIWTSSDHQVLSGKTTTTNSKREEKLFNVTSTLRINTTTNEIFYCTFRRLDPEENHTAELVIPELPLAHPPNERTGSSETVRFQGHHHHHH

On to `COc1cc(OCc2cccc(-c3cccc(COc4cc(OC)c(CN(C)Cc5cc[nH]n5)cc4Cl)c3C)c2C)c(Cl)cc1CN(C)Cc1cc[nH]n1` [Example 5037, 1,1′-((((2,2′-dimethyl-[1,1′-biphenyl]-3,3′-diyl)bis(methylene))bis(oxy))bis(5-chloro-2-methoxy-4,1-phenylene))bis(N-((1H-pyrazol-3-yl)methyl)-N-methylmethanamine)], for which, where the note is “IC50 range class”, the IC50 (usually the concentration at which inhibition is half-maximal) lay in the range of 20.1 to 90 nM.
The same measure, in the same setting: under `COc1cc(OCc2cccc(-c3cccc(COc4cc(OC)c(CN(C)Cc5cncnc5)cc4Cl)c3C)c2C)c(Cl)cc1CN(C)Cc1cncnc1` [Example 5038, 1,1′-((((2,2′-dimethyl-[1,1′-biphenyl]-3,3′-diyl)bis(methylene))bis(oxy))bis(5-chloro-2-methoxy-4,1-phenylene))bis(N-methyl-N-(pyrimidin-5-ylmethyl)methanamine)] stands 90.1 to 1000 nM.
As to `COc1cc(OCc2cccc(-c3cccc(COc4cc(OC)c(CN(C)Cc5cncs5)cc4Cl)c3C)c2C)c(Cl)cc1CN(C)Cc1cncs1` [Example 5039, 1,1′-((((2,2′-dimethyl-[1,1′-biphenyl]-3,3′-diyl)bis(methylene))bis(oxy))bis(5-chloro-2-methoxy-4,1-phenylene))bis(N-methyl-N-(thiazol-5-ylmethyl)methanamine)], the IC50 (IC50 range class) was 90.1 to 1000 nM.
Regarding `Cc1cc(CN2CCCC[C@H]2C(=O)O)ccc1OCc1cccc(-c2cccc(COc3ccc(CN4CCCC[C@H]4C(=O)O)cc3C)c2C)c1C` [Example 5500, (2S,2′S)-1,1′-(((((2,2′-dimethyl-[1,1′-biphenyl]-3,3′-diyl)bis(methylene))bis(oxy))bis(3-methyl-4,1-phenylene))bis(methylene))bis(piperidine-2-carboxylic acid)], the IC50 (IC50 range class) lay within 90.1 to 1000 nM.
In the case of `Cc1cc(OCc2cccc(-c3cccc(COc4cc(C)c(CN5CCCC[C@H]5C(=O)O)cc4Cl)c3C)c2C)c(Cl)cc1CN1CCCC[C@H]1C(=O)O` [Example 5501, (2S,2′S)-1,1′-(((((2,2′-dimethyl-[1,1′-biphenyl]-3,3′-diyl)bis(methylene))bis(oxy))bis(5-chloro-2-methyl-4,1-phenylene))bis(methylene))bis(piperidine-2-carboxylic acid)], where the note is “IC50 range class”, the IC50 was 0.04 to 20 nM.
As to `Cc1cc(OCc2cccc(-c3cccc(COc4cc(C)c(CNCCC(=O)O)cc4Cl)c3C)c2C)c(Cl)cc1CNCCC(=O)O` [Example 5502, 3,3′-((((((2,2′-dimethyl-[1,1′-biphenyl]-3,3′-diyl)bis(methylene))bis(oxy))bis(5-chloro-2-methyl-4,1-phenylene))bis(methylene))bis(azanediyl))dipropionic acid], the IC50 (IC50 range class) lay in the range of 0.04 to 20 nM.
Consider `Cc1cc(OCc2cccc(-c3cccc(COc4cc(OCc5cncc(C#N)c5)c(CN5CCCC[C@H]5C(=O)O)cc4Cl)c3C)c2C)c(Cl)cc1CN1CCCC[C@H]1C(=O)O` [Example 5503, (S)-1-(4-((3′-((4-(((S)-2-carboxypiperidin-1-yl)methyl)-2-chloro-5-((5-cyanopyridin-3-yl)methoxy)phenoxy)methyl)-2,2′-dimethyl-[1,1′-biphenyl]-3-yl)methoxy)-5-chloro-2-methylbenzyl)piperidine-2-carboxylic acid], for which the IC50 (IC50 range class) fell in the range of 0.04 to 20 nM.
For `Cc1cc(OCc2cccc(-c3cccc(COc4cc(OCc5cncc(C#N)c5)c(CNCCC(=O)O)cc4Cl)c3C)c2C)c(Cl)cc1CNCCC(=O)O` [Example 5504, 3-((4-((3′-((4-(((2-carboxyethyl)amino)methyl)-2-chloro-5-((5-cyanopyridin-3-yl)methoxy)phenoxy)methyl)-2,2′-dimethyl-[1,1′-biphenyl]-3-yl)methoxy)-5-chloro-2-methylbenzyl)amino)propanoic acid], the IC50 (IC50 range class) lay in the range of 0.04 to 20 nM.
Consider `Cc1cc(OCc2cccc(-c3cccc(COc4cc(OCc5cncc(C#N)c5)c(CN(C)[C@@H](CCO)C(=O)O)cc4Cl)c3C)c2C)c(Cl)cc1CN(C)[C@@H](CCO)C(=O)O` [Example 5505, N-(4-((3′-((4-((((S)-1-carboxy-3-hydroxypropyl)(methyl)amino)methyl)-2-chloro-5-((5-cyanopyridin-3-yl)methoxy)phenoxy)methyl)-2,2′-dimethyl-[1,1′-biphenyl]-3-yl)methoxy)-5-chloro-2-methylbenzyl)-N-methyl-L-homoserine], for which the IC50 (IC50 range class) lay within 0.04 to 20 nM.
Turning to `Cc1cc(OCc2cccc(-c3cccc(COc4cc(OCc5cncc(C#N)c5)c(CN[C@@](C)(CO)C(=O)O)cc4Cl)c3C)c2C)c(Cl)cc1CN[C@@](C)(CO)C(=O)O` [Example 5507, (S)-2-((4-((3′-((4-((((S)-2-carboxy-1-hydroxypropan-2-yl)amino)methyl)-2-chloro-5-((5-cyanopyridin-3-yl)methoxy)phenoxy)methyl)-2,2′-dimethyl-[1,1′-biphenyl]-3-yl)methoxy)-5-chloro-2-methylbenzyl)amino)-3-hydroxy-2-methylpropanoic acid], where the note is “IC50 range class”, the IC50 lay in the range of 0.04 to 20 nM.
`CC(CO)(CO)NCc1cc(Cl)c(OCc2cccc(-c3cccc(COc4cc(OCc5cncc(C#N)c5)c(CNC(C)(CO)CO)cc4Cl)c3)c2)cc1OCc1cncc(C#N)c1` [Example 40010]: the IC50 (IC50 range class) fell in the range of 0.04 to 20 nM.
On to `C[C@](CO)(NCc1cc(Cl)c(OCc2cccc(-c3cccc(COc4cc(OCc5cncc(C#N)c5)c(CN[C@@](C)(CO)C(=O)O)cc4Cl)c3)c2)cc1OCc1cncc(C#N)c1)C(=O)O` [Example 40040], for which, where the note is “IC50 range class”, the IC50 was in the range of 0.04 to 20 nM.
Take `N#Cc1cncc(COc2cc(OCc3cccc(-c4cccc(COc5cc(OCc6cncc(C#N)c6)c(CN6CCCC[C@H]6C(=O)O)cc5Cl)c4)c3)c(Cl)cc2CN2CCCC[C@H]2C(=O)O)c1` [Example 40050]: where the note is “IC50 range class”, the half-maximal inhibitory concentration (IC50) is 0.04 to 20 nM.
For `N#Cc1cncc(COc2cc(OCc3cccc(-c4cccc(COc5cc(OCc6cncc(C#N)c6)c(CN6CCCCC6)cc5Cl)c4)c3)c(Cl)cc2CN2CCCCC2)c1` [Example 40060], the IC50 (IC50 range class) lay in the range of 20.1 to 90 nM.
Take `CCN(CC)CCCNCc1cc(Cl)c(OCc2cccc(-c3cccc(COc4cc(OCc5cncc(C#N)c5)c(CNCCCN(CC)CC)cc4Cl)c3)c2)cc1OCc1cncc(C#N)c1` [Example 40070]: the IC50 (IC50 range class) lay within 0.04 to 20 nM.
As to `Cc1c(COc2cc(OCc3cncc(C#N)c3)c(CN[C@H](C(=O)O)C(C)(C)O)cc2Cl)cccc1-c1cccc(COc2cc(OCc3cncc(C#N)c3)c(CN[C@H](C(=O)O)C(C)(C)O)cc2Cl)c1C` [Example 40090], the IC50 (IC50 range class) was 0.04 to 20 nM.
For `Cc1c(COc2cc(OCc3cncc(C#N)c3)c(CNC(C(=O)O)C(C)O)cc2Cl)cccc1-c1cccc(COc2cc(OCc3cncc(C#N)c3)c(CNC(C(=O)O)C(C)O)cc2Cl)c1C` (stereo not shown) [Example 40100], the IC50 (IC50 range class) is 0.04 to 20 nM.
The same measure, in the same setting: the figure for `Cc1c(COc2cc(OCc3cncc(C#N)c3)c(CNC[C@H](O)CC(=O)O)cc2Cl)cccc1-c1cccc(COc2cc(OCc3cncc(C#N)c3)c(CNC[C@H](O)CC(=O)O)cc2Cl)c1C` [Example 40110] is 0.04 to 20 nM.
In the case of `Cc1c(COc2cc(O)c(CN[C@@](C)(CO)C(=O)O)cc2Cl)cccc1-c1cccc(COc2cc(OCc3cncc(C#N)c3)c(CN[C@@](C)(CO)C(=O)O)cc2Cl)c1C` [Example 40130], the IC50 (IC50 range class) lay in the range of 0.04 to 20 nM.
On the same count and under the same terms, under `C[C@@](CO)(NCc1cc(Cl)c(OCc2cccc(-c3cccc(COc4cc(OCc5cncc(C#N)c5)c(CN[C@@](C)(CO)C(=O)O)cc4Cl)c3Cl)c2Cl)cc1OCc1cncc(C#N)c1)C(=O)O` [Example 40140] stands 0.04 to 20 nM; under `COC(=O)[C@](C)(CO)NCc1cc(Cl)c(OCc2cccc(-c3cccc(COc4cc(OCc5cncc(C#N)c5)c(CN[C@@](C)(CO)C(=O)OC)cc4Cl)c3C)c2C)cc1OCc1cncc(C#N)c1` [Example 40150], 20.1 to 90 nM; under `Cc1c(COc2cc(O)c(CN[C@@](C)(CO)C(=O)O)cc2Cl)cccc1-c1cccc(COc2cc(O)c(CN[C@@](C)(CO)C(=O)O)cc2Cl)c1C` [Example 40160], 0.04 to 20 nM.
As for `N#Cc1cncc(COc2cc(OCc3cccc(-c4cccc(COc5cc(OCc6cncc(C#N)c6)c(CNC(CCO)C(=O)O)cc5Cl)c4Cl)c3Cl)c(Cl)cc2CNC(CCO)C(=O)O)c1` (stereo not shown) [Example 40170], the IC50 (IC50 range class) was in the range of 0.04 to 20 nM.
Same read-out and setting: under `Cc1c(COc2cc(OCC3CC3)c(CNC(CCO)C(=O)O)cc2Cl)cccc1-c1cccc(COc2cc(OCC3CC3)c(CNC(CCO)C(=O)O)cc2Cl)c1C` (stereo not shown) [Example 40180] stands 0.04 to 20 nM.
Take `N#Cc1cncc(COc2cc(OCc3cccc(-c4cccc(COc5cc(OCc6cncc(C#N)c6)c(CN[C@@H](CCO)C(=O)O)cc5Cl)c4Cl)c3Cl)c(Cl)cc2CN[C@@H](CCO)C(=O)O)c1` [Example 40190]: the IC50 (IC50 range class) is 0.04 to 20 nM.
Take `Cc1c(COc2cc(OCc3cncc(C#N)c3)c(CNC(CO)(Cc3ccccc3)C(=O)O)cc2Cl)cccc1-c1cccc(COc2cc(OCc3cncc(C#N)c3)c(CNC(CO)(Cc3ccccc3)C(=O)O)cc2Cl)c1C` (stereo not shown) [Example 40200]: the IC50 (IC50 range class) lay in the range of 0.04 to 20 nM.
For the compound `Cc1c(COc2cc(OCc3cncc(C#N)c3)c(CNC(C)(CO)C(=O)O)cc2Cl)cccc1-c1cccc(COc2cc(OCc3cncc(C#N)c3)c(CNC(C)(CO)C(=O)O)cc2Cl)c1C` (stereo not shown) [Example 40210], the IC50 (numeric IC50) stood at 1.1 nM.
Turning to `Cc1c(COc2cc(OCc3cncc(C#N)c3)c(CNC[C@H](O)C(=O)O)cc2Cl)cccc1-c1cccc(COc2cc(OCc3cncc(C#N)c3)c(CNC[C@H](O)C(=O)O)cc2Cl)c1C` [Example 40220], the IC50 (IC50 range class) was 0.04 to 20 nM.
On to `Cc1c(COc2cc(OCc3cncc(C#N)c3)c(CNCC(O)CC(=O)O)cc2Cl)cccc1-c1cccc(COc2cc(OCc3cncc(C#N)c3)c(CNCC(O)CC(=O)O)cc2Cl)c1C` (stereo not shown) [Example 40230], for which, for the setting “IC50 range class”, the IC50 is 0.04 to 20 nM.
On to `Cc1c(COc2cc(OCc3cncc(C#N)c3)c(CNC(C)(CO)CO)cc2Cl)cccc1-c1cccc(COc2cc(OCc3cncc(C#N)c3)c(CNC(C)(CO)CO)cc2Cl)c1C` [Example 40250], for which, under “IC50 range class”, the IC50 fell in the range of 0.04 to 20 nM.
Turning to `Cc1c(COc2cc(OCc3cncc(C#N)c3)c(CN[C@@H](CO)C(=O)O)cc2Cl)cccc1-c1cccc(COc2cc(OCc3cncc(C#N)c3)c(CN[C@H](CO)C(=O)O)cc2Cl)c1C` [Example 40260], the IC50 (IC50 range class) lay in the range of 0.04 to 20 nM.
